Structures can show the parent of a compound that is named as a salt.
System: cancer cell lines
Experiment: Growth inhibitory effects on the panel of cancer cell lines
Type: cell-based
Settings: drug 10 μM, 72 hours, WST-1

Compound | inhibition effect on different cancer cell lines (in words)
CS(=O)(=O)OCCCCOS(C)(=O)=O [Busulfan (Myleran, Busulfex), Busulfan] | significant inhibition effect
Oc1ccc(OC2CCCCO2)cc1 (centres unmarked) [Deoxyarbutin] | significant inhibition effect
CNCC(O)c1ccc(O)c(O)c1 (racemic) [DL-Adrenaline] | significant inhibition effect
COc1ccc([C@@H]2Sc3ccccc3N(CCN(C)C)C(=O)[C@@H]2OC(C)=O)cc1 [Diltiazem HCl (Tiazac), Diltiazem HCl] | significant inhibition effect
NS(=O)(=O)c1cc(Cl)c(Cl)c(S(N)(=O)=O)c1 [Dichlorphenamide (Diclofenamide), Dichlorphenamide] | significant inhibition effect
C=C(c1ccc(C(=O)O)cc1)c1cc2c(cc1C)C(C)(C)CCC2(C)C [Bexarotene] | significant inhibition effect
Cc1cccc(C)c1OCC(C)N (centres unmarked) [Mexiletine HCl] | significant inhibition effect
COC(=O)[C@H]1[C@H]2C[C@@H]3c4[nH]c5cc(OC)ccc5c4CCN3C[C@H]2C[C@@H](OC(=O)c2cc(OC)c(OC)c(OC)c2)[C@@H]1OC [Reserpine] | significant inhibition effect
CC(C)NCC(O)c1ccccc1Cl (centres unmarked) [Clorprenaline HCL] | significant inhibition effect
Cc1cccc(Nc2ccncc2S(=O)(=O)NC(=O)NC(C)C)c1 [Torsemide (Demadex), Torsemide] | significant inhibition effect
COCCc1ccc(OCC(O)CNC(C)C)cc1 (centres unmarked) [toprolol tartrate] | significant inhibition effect
C[C@@H]1C(=O)O[C@H]2C[C@@]34[C@H]5C[C@@H](C(C)(C)C)[C@]36[C@@H](OC(=O)[C@@H]6O)O[C@@]4(C(=O)O5)[C@]21O [Ginkgolide A] | significant inhibition effect
N=C(N)c1ccc2cc(OC(=O)c3ccc(N=C(N)N)cc3)ccc2c1 [Nafamostat mesylate] | significant inhibition effect
CCCc1nc(C(C)(C)O)c(C(=O)OCc2oc(=O)oc2C)n1Cc1ccc(-c2ccccc2-c2nnn[nH]2)cc1 [Olmesartan medoxomil (Benicar), Olmesartan medoxomil] | significant inhibition effect
CCOc1nc2cccc(C(=O)OC(C)OC(=O)OC3CCCCC3)c2n1Cc1ccc(-c2ccccc2-c2nnn[nH]2)cc1 (centres unmarked) [Candesartan cilexetil (Atacand), Candesartan cilexetil] | significant inhibition effect
CC(C)(Sc1cc(C(C)(C)C)c(O)c(C(C)(C)C)c1)Sc1cc(C(C)(C)C)c(O)c(C(C)(C)C)c1 [Probucol] | significant inhibition effect
CN(C)C(=O)Oc1ccc[n+](C)c1 [Pyridostigmine Bromide (Mestinon), Pyridostigmine Bromide] | significant inhibition effect
Nc1cccc2c1CN(C1CCC(=O)NC1=O)C2=O (centres unmarked) [Lenalidomide] | significant inhibition effect
Cc1ccc(C)c(OCCCC(C)(C)C(=O)O)c1 [Gemfibrozil (Lopid), Gemfibrozil] | significant inhibition effect

Compound | inhibition effect on different cancer cell lines (in words)
Nc1ncnc2c1ncn2[C@@H]1O[C@H](CO)[C@@H](O)[C@H]1O [Adenosine (Adenocard), Adenosine] | significant inhibition effect
COC(=O)[C@@H]1CC2=CC(=O)CC[C@]2(C)[C@@]23O[C@@H]2C[C@@]2(C)[C@@H](CC[C@@]24CCC(=O)O4)[C@H]13 [Eplerenone] | significant inhibition effect
CC(Oc1c(Cl)cccc1Cl)C1=NCCN1 (centres unmarked) [Lofexidine HCl] | significant inhibition effect
C[N+](C)(C)CC(O)CC(=O)O.[Cl-] (racemic) [DL-Carnitine hydrochloride] | significant inhibition effect
CCCCCCCCOc1ccccc1C(=O)Nc1ccc(C(=O)OCC[N+](C)(CC)CC)cc1 [Otilonium Bromide] | significant inhibition effect
NS(=O)(=O)c1cc2c(cc1Cl)N=C(CSCc1ccccc1)NS2(=O)=O [Benzthiazide] | significant inhibition effect
COC(=O)CCc1ccc(OCC(O)CNC(C)C)cc1 (centres unmarked) [Esmolol HCl] | significant inhibition effect
C[C@@H](CN1CC(=O)NC(=O)C1)N1CC(=O)NC(=O)C1 [Dexrazoxane Hydrochloride] | significant inhibition effect
Almotriptan malate [Almotriptan malate (Axert)] | significant inhibition effect
CCCCc1ncc(/C=C(\Cc2cccs2)C(=O)O)n1Cc1ccc(C(=O)O)cc1 [Eprosartan Mesylate] | significant inhibition effect
C[C@]12CCC(=O)C=C1C=C[C@@H]1[C@@H]2CC[C@@]2(C)[C@H]1CC[C@@]2(O)CCC(=O)O [Potassium Canrenoate] | significant inhibition effect
NS(=O)(=O)c1cc2c(cc1Cl)NCNS2(=O)=O [Hydrochlorothiazide] | significant inhibition effect
Cc1onc(-c2ccccc2Cl)c1C(=O)N[C@@H]1C(=O)N2[C@@H]1SC(C)(C)[C@@H]2C(=O)O [Cloxacillin sodium (Cloxacap), Cloxacillin sodium] | significant inhibition effect
Cc1ccccc1N1C(=O)c2cc(S(N)(=O)=O)c(Cl)cc2NC1C (centres unmarked) [Metolazone (Zaroxolyn), Metolazone] | significant inhibition effect
O=C1[C@H](CC[C@H](O)c2ccc(F)cc2)[C@@H](c2ccc(O)cc2)N1c1ccc(F)cc1 [Ezetimibe (Zetia), Ezetimibe] | significant inhibition effect
CC[C@H](C)C(=O)O[C@H]1CCC=C2C=C[C@H](C)[C@H](CC[C@@H]3C[C@@H](O)CC(=O)O3)[C@H]21 [Mevastatin] | significant inhibition effect
Cc1cc2c(cc1S(N)(=O)=O)S(=O)(=O)CCC2 [Meticrane] | significant inhibition effect
Ibutilide fumarate | significant inhibition effect
CC(N/C(=N\C#N)Nc1ccncc1)C(C)(C)C (centres unmarked) [Pinacidil] | significant inhibition effect

Compound | inhibition effect on different cancer cell lines (in words)
COc1cc2nc(N(C)CCCNC(=O)C3CCCO3)nc(N)c2cc1OC (centres unmarked) [Alfuzosin hydrochloride (Uroxatral), Alfuzosin hydrochloride] | significant inhibition effect
O=C1c2ccccc2C(=O)C1c1ccccc1 [Phenindione (Rectadione), Phenindione] | significant inhibition effect
Cc1nc2c([nH]1)-c1ccccc1N(C(=O)c1ccc(NC(=O)c3ccccc3-c3ccccc3)cc1)CC2 [Conivaptan HCl (Vaprisol), Conivaptan HCl] | significant inhibition effect
CCCC(CCC)C(=O)[O-].[Na+] [Valproic acid sodium salt] | significant inhibition effect
O=C1CCc2cc(OCCCCc3nnnn3C3CCCCC3)ccc2N1 [Cilostazol] | significant inhibition effect
NC12CC3CC(CC(C3)C1)C2 [Amantadine hydrochloride (Symmetrel), Amantadine hydrochloride] | significant inhibition effect
CCOCC(O)COc1ccc(NC(=O)CC[S+](C)C)cc1 (centres unmarked) [Suplatast tosylate] | significant inhibition effect
CN1C(CCl)Nc2cc(Cl)c(S(N)(=O)=O)cc2S1(=O)=O (centres unmarked) [Methyclothiazide] | significant inhibition effect
O=C1c2c(O)ccc(O)c2C(=O)c2c(NCCNCCO)ccc(NCCNCCO)c21 [Mitoxantrone Hydrochloride] | significant inhibition effect
CC1CNc2c(cccc2S(=O)(=O)N[C@@H](CCCNC(=N)N)C(=O)N2CC[C@@H](C)C[C@@H]2C(=O)O)C1 (some centres unmarked) [Argatroban] | significant inhibition effect
O=C(O[C@H]1C[C@H]2CC[C@@H](C1)[N+]21CCCC1)C(O)(c1ccccc1)c1ccccc1 [Trospium chloride (Sanctura), Trospium chloride] | significant inhibition effect
CNC[C@H](O)[C@@H](O)[C@H](O)[C@H](O)CO.CNC[C@H](O)[C@@H](O)[C@H](O)[C@H](O)CO.C[C@@H](O[C@H]1OCCN(Cc2nn(P(=O)(O)O)c(=O)[nH]2)[C@H]1c1ccc(F)cc1)c1cc(C(F)(F)F)cc(C(F)(F)F)c1 [Fosaprepitant dimeglumine] | significant inhibition effect
CC(=O)Oc1cc2c(s1)CCN(C(C(=O)C1CC1)c1ccccc1F)C2 (centres unmarked) [Prasugrel (Effient), Prasugrel] | significant inhibition effect
OC[C@@H](O)[C@@H](O)[C@H](O)[C@H](O)CO [D-Mannitol (Osmitrol), D-Mannitol] | significant inhibition effect
CNCC(=O)c1ccc(O)c(O)c1 [Adrenalone HCl] | significant inhibition effect
COc1ccc(OC)c(C(O)C(C)N)c1 (centres unmarked) [Methoxamine HCl] | significant inhibition effect
CC(S)C(=O)NCC(=O)O (centres unmarked) [Tiopronin (Thiola), Tiopronin] | significant inhibition effect
CC(C)NC[C@@H](O)COc1ccc(CC(N)=O)cc1 [(R)-(+)-Atenolol] | significant inhibition effect

— patent US20170304388A1, “NEW INDICATION OF CARDIOVASCULAR DRUGS FOR PREPARATION OF CANCER INHIBITION PHARMACEUTICAL COMPOSITION” (LAUNX BIOMEDICAL CO., LTD., priority 2014, published 2017)
